Patent US20140309295A1, “ANTIEPILEPTIC, HYPOCHOLESTEROLEMIC AND NEUROPROTECTIVE COMPOUND” (NEURON BIOPHARMA, S.A., priority 2009, published 2014)
Peptide text beside a SMILES is read from it. * marks the point of attachment. Cbz = O=C(OCc1ccccc1)*; CH2F = FC*

Legend:
caspase 3/7 = experiment: Inhibition of camptothecin-induced activation of caspase 3/7 in SK-N-MC cells; type: cell-based, human; conditions: 50 μM Z-VAD-fmk; 50 μM CPT
Protocol: The assay was performed on human neuroblastoma SK-N-MC cells in culture from the American Type Culture Collection (ATCC), in all cases strict rules of sterility were followed and the manipulation was performed in class II biological safety cabinets following European standard EN 12469. The cells were maintained in the following culture medium: Minimum Essential Medium Eagle (MEM) supplemented with 1 mM sodium pyruvate, 2 mM L-glutamine, 0.1 mM non-essential amino acids, 0.05 mg/ml gentamicin and 10% fetal bovine serum. The induction of apoptosis on the cells in culture was performed by means of incubation with camptothecin (CPT), which triggers cell apoptosis activation. The apoptosis was determined by means of the measurement of the activation of effector caspases, caspase 3 or caspase 7, for which a kit for the fluorometric detection of active caspase 3/7 (Apo-ONE® Homogeneous Caspase-3/7, Promega) was used. The active caspase 3 or 7 of the cells cause the rupture of a substrate, which leads to fluorescence emission, which is read by means of a fluorometer. The effect of the pretreatment of compound NST0037 at 10 and 40 μM on the activation of caspase 3/7 caused by 50 μM of camptothecin (CPT) in the SK-N-MC cells was thus analyzed. These cells, not exceeding 15 passages, were seeded on 96-well plates treated for adherent cells with a cell concentration of 5×10^4 cells/well, 3 wells of the plate were seeded for each condition of the assay. After 24 hours of cell incubation at 37° C. and 5% CO2, the pretreatment with NST0037 at 10 and 40 μM was performed. […] On the following day, fluorescence was measured (499/521 nm, […]).

[1] = test system: human neuroblastoma SK-N-MC cells; experiment: Inhibition of camptothecin-induced apoptosis by flow cytometry (sub-G1); type: cell-based; conditions: 50 μM Z-VAD-fmk; 50 μM camptothecin
Protocol: The assay was performed on human neuroblastoma SK-N-MC cells in culture from the American Type Culture Collection (ATCC), in all cases strict rules of sterility were followed and the manipulation was performed in class II biological safety cabinets following European standard EN 12469. The cells were maintained in the following culture medium: Minimum Essential Medium Eagle (MEM) supplemented with 1 mM sodium pyruvate, 2 mM L-glutamine, 0.1 mM non-essential amino acids, 0.05 mg/ml gentamicin and 10% fetal bovine serum.
The inhibition caused by compound NST0037 against apoptosis (programmed cell death) caused by treatment with camptothecin which inhibits the enzyme Topoisomerase I, which prevents DNA duplication and triggers apoptotic cell death, was analyzed. These cells, not exceeding 15 passages, were seeded on 6-well plates treated for adherent cells with a cell concentration of 8×10^5 cells/well and 7×10^5 cells/well for the assay with pretreatment; 2 wells of the plate were seeded for each condition of the assay.
After 24 hours of cell incubation at 37° C. and 5% CO2, the cell treatments were performed with 2 ml of total volume for the following conditions: • Control: culture medium (medium) • Camptothecin: medium plus camptothecin 50 μM. • Camptothecin plus Z-VAD-fmk: medium plus 50 μM camptothecin plus 50 μM Z-VAD-fmk, as positive inhibition control. • Camptothecin plus NST0037: medium plus 50 μM camptothecin plus NST0037 at 10, 40 or 100 μM.
In the assay with pretreatment, the cells were previously treated with 40 μM of NST0037, 100 μM of mevalonate or both together for 24 hours and then they were treated with 50 μM camptothecin, the rest of the procedure was similar to the assay without pretreatment.
The cells were incubated (at 37° C. and 5% CO2) with these treatments for 6 hours, after which time they were collected along with their culture medium and centrifuged at 300×g for 5 minutes. The medium was removed, a washing was performed with PBS and the cells were fixed for 2 minutes with 500 μl of 70% ethanol at −20° C. Once fixed, they were centrifuged at 400×g for 5 minutes, washed with PBS and 0.05 mg/ml propidium iodide, diluted in cycling buffer (0.1% sodium citrate, 0.3% Nonidet P-40 and 0.02 mg/ml RNase) were added and they were incubated for 1 hour at 37° C. After this time they were analyzed by flow cytometry, comparing the fluorescence of propidium iodide against the amount of DNA. The percentage of apoptosis was measured on the sub-G1 region of each of the conditions.

zebrafish embryo = experiment: Biosafety in zebrafish embryo (OECD C15, semi-static, 9 days); type: in vivo, Danio rerio
Protocol: The fertilized eggs were obtained by natural mating of the zebrafish (Danio rerio, AB strain). A total of 8-10 pairs were used for each cross and a total of 200-250 eggs were generated on average per pair.
To assure exposure in the earliest stages of development, the eggs were quickly transferred (a minimum of 50 per condition) to another Petri dish with solutions of the compounds to be tested. […] Each experiment was performed in triplicate.
The studies were conducted in a total of 9 days post-fertilization, in which the treatment was renewed every day, thus conducting a semi-static assay.
The results at the end of the experiment allowed collecting the percentage of healthy larvae which reach the end of the experiment, defined as the number of live larvae and without symptoms of external physiopathological anomalies (morphological and/or behavioral), this being a parameter determining the biosafety of a substance under study and is complementary to the survival rates and to the LD50.
The anomalies recorded in the study are described below: • Intracranial thrombosis: a clot inside the blood vessel, in this case of any cerebral vessel. • Cardiac thrombosis: occurs in a cardiac vessel. • Cardiac edema (or hydrops): accumulation of fluid in the intercellular tissue space and also in the cavities of the organism. In the case of the heart, it causes the accumulation of fluid in the pericardial sac. • Malformation: a noticeable difference in the shape of the body or part of the body, or organ of the body (internal or external) compared with the average shape of the part in question.
The cardiac rhythm of the zebrafish embryos-larva was determined by means of visual analysis in stereomicroscopy, determining the heartbeat with the aid of a manual counter for a period of one minute.

adult zebrafish = experiment: Lethality by constant exposure in water (4 days) in adult zebrafish (OECD 203); type: in vivo; conditions: for histopathology: ovary / Mortality (dead animals/total): 4 days
Protocol: The object of this assay is to determine the acute lethal toxicity of a substance on freshwater fish. Acute toxicity is the distinguishable adverse effect induced in an organism as a result of the exposure to a given substance for a short time period (days).
The deaths of the animals under study during the entire time of the assay were recorded as a toxicity parameter.
To that end, the fish that survived the treatment were sacrificed at 4 days post-treatment (previously anesthetized) and the samples (whole fish) were included in paraffin. The hematoxylin-eosin staining was subsequently performed in order to conduct the histopathological studies, obtaining a minimum of 6 longitudinal sections per animal, for the purpose of collecting different study areas of the same organ. The following organs were studied: brain, kidney, pancreas, intestine, eye, gills, ovary, testicle, muscle and liver.

zebrafish larvae = experiment: Acute toxicity assay in zebrafish larvae (24 hours); type: in vivo, Danio rerio; conditions: for Mortality (dead larvae/total): 1 day
Protocol: To evaluate the biosafety of compound NST0037, its toxicological effects on the zebrafish larvae model were analyzed by means of determining the safety parameters of the OECD C15 protocol.
The fertilized eggs were obtained by natural mating of the zebrafish (Danio rerio, AB strain). A total of 8-10 pairs were used for each cross and a total of 200-250 eggs were generated on average per pair. The eggs were collected immediately after spawning and were washed with dilution water (CaCl2.2H2O2 0.29 g/L, MgSO4.7H2O2 0.12 g/L, NaHCO3 0.065 g/L, KCl 0.006 g/L), the pH being adjusted to 7.8±0.2, in accordance with EC Regulation 440/2008, method C.1, and were deposited in a Petri dish.
The embryos were developed normally until 96 hours post-fertilization in their growth medium. […] […]. Each experiment was performed in triplicate.
The studies were conducted for 24 hours of treatment, thus performing an acute toxicity assay. […].
After the time of exposure of the substances under study, the record of the mortality of the larvae was determined. […].
[…]. The percentage of healthy larvae was defined as the number of live larvae without symptoms of external physiopathological anomalies (morphological and/or behavioral), the latter being a parameter determining the biosafety of a substance under study and is complementary to the survival rates and to LD50. […].
The anomalies recorded in the study are described below: • Thrombosis in the yolk sac: it is a clot inside a blood vessel, in this case of any vessel irrigating the yolk. • Cardiac thrombosis: occurs in a cardiac vessel. • Cardiac edema (or hydrops): accumulation of fluid in the intercellular tissue space and also in the cavities of the organism. In the case of the heart, it causes the accumulation of fluid in the pericardial sac.

## COC(=O)C[C@H](NC(=O)[C@H](C)NC(=O)[C@@H](NC(=O)OCc1ccccc1)C(C)C)C(=O)CF [Z-VAD-fmk, reference compound] (Cbz-Val-Ala-Asp(OMe)-CH2F)
Caspase 3/7
  inhibition of activation of caspase 3/7 (inhibition control): completely inhibited the activation of caspase 3/7
[1]
  inhibition of apoptosis caused by camptothecin (positive inhibition control): specifically inhibited the apoptosis caused by camptothecin

## CCC(C)(C)C(=O)O[C@H]1C[C@@H](C)C=C2C=C[C@H](C)[C@H](CC[C@@H]3C[C@@H](O)CC(=O)O3)[C@H]21 [simvastatin, reference compound]
Zebrafish embryo; 0.2 mg/L
  percentage of larvae with malformations or anomalous appearance: significant percentage of anomalies or toxicological problems
Zebrafish embryo; high dose (2 mg/L, FIG. 24)
  survival rate of embryos-larvae: more toxic, since the reduction of the survival rate started earlier in time
Zebrafish embryo; increasing doses up to 2 mg/L, 72 hours post-treatment
  reduction of the cardiac rhythm vs controls: statistically significant reduction with respect to the controls after the dose of 0.06
Zebrafish embryo; lower dose (FIG. 25: NST0037 0.2 mg/L)
  survival rate of embryos-larvae vs controls: caused a significant reduction of the survival rate
Adult zebrafish; 30 mg/kg
  histopathology: ovary: also presented histopathological damage in the ovary
Adult zebrafish; 100 mg/Kg
  histopathology: ovary: presented ovarian damage
Adult zebrafish; Dose 1 mg/kg
  Mortality (dead animals/total): 0/7
Adult zebrafish; Dose 3.2 mg/kg
  Mortality (dead animals/total): 0/7
Adult zebrafish; Dose 10 mg/kg
  Mortality (dead animals/total): 0/7
Adult zebrafish; Dose 32 mg/kg
  Mortality (dead animals/total): 0/7
Adult zebrafish; Dose 100 mg/kg
  Mortality (dead animals/total): 6/7
Adult zebrafish; day 4 post-treatment (100 mg/kg group)
  percentage of mortality: 86%
Zebrafish larvae; 24 hours exposure
  percentage of larvae with toxicological symptomatology (anomalous appearance): induced a larger percentage of larvae with toxicological symptomatology than compound NST0037
Zebrafish larvae; Dose 10 mg/Kg
  Mortality (dead larvae/total): 0/30
Zebrafish larvae; Dose 30 mg/Kg
  Mortality (dead larvae/total): 0/30
Zebrafish larvae; Dose 100 mg/Kg
  Mortality (dead larvae/total): 0/30
Zebrafish larvae; Dose 300 mg/Kg
  Mortality (dead larvae/total): 0/30
Zebrafish larvae; Dose 1000 mg/Kg
  Mortality (dead larvae/total): 0/30
Zebrafish larvae; highest study dose (1000 mg/Kg), 24 hours
  percentage of healthy larvae: 53.3±8.8%
